These results are taken from patent publication US7144551B2, “Mold remediation system and method” (DH Technologies, L.L.P., priority 2002, dated 2006).

In one data set the test system is mold and mildew stain. Description: Label-recommended hypochlorite concentration for mold and mildew stain removal (Ultra Chlorox label). As for the experimental part: (§1) First, the recommended concentration of HOCl for sanitization of surfaces according to the prior art is calculated. Referring to the label of Ultra Chlorox® brand of sodium hypochlorite and noticing that a recommended concentration of NaOCl for mold and mildew stain removal is 3⁄4 cup Ultra Chlorox® plus one gallon of water. Ultra Chlorox® contains 6.00% NaOCl per the label. […] For the mold remediation studies, 5 mL of 6.0% NaOCl was mixed with 50 mL of water, acidified and was placed in a container with a volume of 1400 cc. • 5 mL of 6.0% NaOCl=0.30 g NaOCl • Assuming all of the NaOCl is converted to HOCl: • 0.30 g NaOCl=(0.30 g NaOCl)(52.5 g HOCl)/(74.5 g NaOCl)=0.21 g HOCl This quantity of HOCl is diluted to 1400 cc. Therefore, the maximum concentration of HOCl gas in the container studied is: • 0.21 g HOCl/1400 cc=15×10^-5 g HOCl/cc

The test system of another data set is mold and mold stains. Kind of data set: Mold kill and mold stain removal study: vapor from acidified 6.0% NaOCl diluted in water, in a 1400 cc container. The format is cell-based. The settings on record: 5 mL 6.0% NaOCl + 50 mL water, in 1400 cc. As for the experimental part: as §1, with “HOCl/cc […]” for “HOCl/cc”
Another data set deals with mold. Description: Mold remediation study: vapor from acidified 600 ppm NaOCl in a closed 1400 cc container. It is filed as cell-based. To be noted: 10 ml acidified 600 ppm NaOCl in 1400 cc; all NaOCl assumed converted to HOCl. As for the experimental part:
For purposes of the calculation which now follows, it is assumed that essentially all of the NaOCl is converted to HOCl when acidified, which is a valid assumption given the equilibrium of the reaction. For mold remediation studies, 10 ml of acidified 600 ppm NaOCl was placed in a container with a volume of 1400 cc. • 10 ml of 600 ppm NaOCl=0.00600 g NaOCl/10 ml • 0.00600 g NaOCl=(0.00600 g NaOCl)(52.5 g HOCl)/(74.5 g NaOCl)=0.00423 g HOCl This quantity is diluted to 1400 cc. Therefore, the maximum concentration of HOCl gas in the container studied is: • 0.00423 g/1400 cc=3.02×10^−6 g HOCl/cc. […] Thus, we have discovered that by converting the NaOCl to HOCl and using it in the form of a gas the concentration needed for mold cidal activity is at least about 47 times less than is recommended for sanitation in the liquid form of hypochlorite bleach! We next investigated the removal of mold stain from surfaces.

The conditions of data set [1]: cited from earlier work.
Data set [2] relates to germs on surfaces. Description: Label-recommended hypochlorite concentration for sanitization of surfaces (Ultra Clorox label).
The subject of the next data set is mold colonies. Description: Cidal action of controlled hypochlorous acid vapor on mold colonies (general statements). It is filed as cell-based.
For data set [3], the system named is germs on surfaces. To be noted: cited from earlier work.

Where two headings read alike, the source gives them in different places.

As to `OCl` [hypochlorous acid], the “Conc. of HOCl equivalent to the recommended stain removal solution” value with mold and mildew stain (all NaOCl assumed converted to HOCl) was determined as 0.0019 g HOCl/cc. The “maximum concentration of HOCl gas in the container found to kill mold and remove stains” value in the data set with mold and mold stains was 15×10^−5 g HOCl/cc. Further, the “maximum concentration of HOCl gas in the container found to kill mold” value in the data set on mold is listed as 3.02×10^−6 g HOCl/cc. The “% as HOCl” value in data set [1] (pH 5.0) is reported as 100%; in data set [1] (pH 6.0), 96%; in data set [1] (pH 7.0) it was 72%; in data set [1] (pH 7.2) it was 66%; in data set [1] (pH 7.5), 48%; in data set [1] (pH 7.8), 33%. In data set [1] (pH 8.0), the “% as HOCl” value is on record as 22%. The “equivalent concentration of HOCl necessary to sanitize per manufacturer recommendation” value in the data set with germs on surfaces [2] (calculated from 200 ppm NaOCl, liquid) was 1.41×10^−4 g HOCL/cc. Moreover, the “time to completely eradicate even the most refractory of mold colonies” value with mold colonies (hypochlorous acid vapors generated and controlled as described) is ≤ 24 h. Besides, the “hypochlorous acid concentration in the air that must be exceeded for effective cidal action on mold-contaminated materials” value in the data set on mold colonies (in air) is “exceed 3×10^−7 grams/cubic centimeter”.
hypochlorite ion [OCl—]: the “% as OCl—” value is on record as 0% in data set [1] (pH 5.0); 4% in data set [1] (pH 6.0); 28% in data set [1] (pH 7.0); 34% in data set [1] (pH 7.2); 52% in data set [1] (pH 7.5); 67% in data set [1] (pH 7.8). In addition, the “% as OCl—” value in data set [1] (pH 8.0) is reported as 78%.
Consider `OCl` [sodium hypochlorite, reference compound], for which, in the data set on mold and mildew stain (¾ cup Ultra Chlorox (6.00% NaOCl) plus one gallon of water), the “NaOCl conc. recommended by Ultra Chlorox for mold and mildew stain removal” value was 0.0027 g/cc. The “recommended sanitizing concentration expressed by volume” value in the data set on germs on surfaces [2] (corresponds to 200 ppm aqueous solution) is reported as 200×10^−6 grams/cc. The “recommended concentration for killing germs on surfaces / sanitation” value in the data set with germs on surfaces [3] is 200 ppm.
